Among the data in patent US11925178B1, “2′-alkyloxy-6′-phenyl[3,4′-bipyridine]-3′-carbonitrile as an insecticidal agent against Aphis craccivora” (priority 2023, dated 2024) are LC50 and Toxic ratio values, retold here.

Test [1] has as its system adults of cowpea aphid (Aphis craccivora). Nature of the test: Leaf dipping insecticidal bioassay, adults of cowpea aphid. Type of test: in vivo. Particulars: 24 h; for LC50: Aphis craccivora, foliar; for Toxic ratio: Acetamiprid's LC50 / the compound's LC50. Here is the method:
(§1) The original batches of cowpea aphid insects were collected from pest's laboratory, Plant Protection Research Institute, Agricultural Research Center. The target compounds were screened for their insecticidal activity towards nymphs and adults of cowpea aphid.
(§2) The insecticidal activities of compounds 4 and 5 were measured by using leaf dipping method under the same reported laboratory conditions. Five concentrations of compound 4, 5 and 0.1% Tween-80 as a surfactant were used. Nearly the same size 30 nymphs and 30 adults of cowpea aphid insects were used for dipping for 10 second in every concentration of each compound (repeat three times). Insects which tested were allowed to stand to dry at room temperature for about half an hour. In the control experiment, the insects were dunked in distilled water and 0.1% tween-80 only. These applications were carried out at 5% relative humidity, and at a temperature of 25° C. After the used insect had dried, they were transferred to glass jars containing water. With a new binocular microscope, the aphid mortality was taken after 24 hrs of treatment. Any aphid that was unable to move was considered dead. The LC50 values used to evaluate the insecticidal activity were estimated by probit analysis.

Test [2] concerns nymphs of cowpea aphid (Aphis craccivora). Nature of the test: Leaf dipping insecticidal bioassay, nymphs of cowpea aphid. Type of test: in vivo. Particulars: 24 h; for LC50: Aphis craccivora, foliar; for Toxic ratio: Acetamiprid's LC50 / the compound's LC50. The method, then: as §1, §2
The mark [3] stands for this setting: adults, after 24 h of treatment, leaf dipping, probit analysis, read-out: LC50.
Setting [4] is: nymphs, after 24 h of treatment, leaf dipping, probit analysis, read-out: LC50.

Converted amounts (≈) assume the structure as drawn. Where two headings read alike, the source gives them in different places.

As for `C/C(=N\C#N)N(C)Cc1ccc(Cl)nc1` [Acetamiprid, acetamiprid, reference compound], the LC50 (as a rule, the concentration that kills 50% of the test population) in test [1] was determined as 0.267 µg/mL (≈ 1.2 µM); in test [2], 0.045 µg/mL (≈ 0.202 µM). Besides, the Toxic ratio in test [1] (adults) and in test [2] (nymphs) was 1 in each case.
Take `CCOc1nc(-c2ccccc2)cc(-c2cccnc2)c1C#N` [Compound 4, 2′-Ethoxy-6′-phenyl[3,4′-bipyridine]-3′-carbonitrile]: the results for the LC50 in test [1] (setting [3]) and in test [2] (setting [4]) were around 1.3 µg/mL (≈ 4.32 µM) and around 0.0781 µg/mL (≈ 0.259 µM), respectively. Moreover, the Toxic ratio in test [1] (adults) is listed as 0.205; in test [2] (nymphs) it was 0.576.
The like results for `COc1nc(-c2ccccc2)cc(-c2cccnc2)c1C#N` [Compound 5, 2′-Methoxy-6′-phenyl[3,4′-bipyridine]-3′-carbonitrile] were, in that order, 1.4 µg/mL (≈ 4.87 µM), around 0.0842 µg/mL (≈ 0.293 µM), 0.190 and 0.0534.
